According to patent publication US20160038532A1, “Treatment of Multiple Sclerosis With Combination of Laquinimod and Glatiramer Acetate” (TEVA PHARMACEUTICAL INDUSTRIES, LTD., priority 2011, published 2016):
Values joined by “and” are separate entries in the source; they are usually repeats but may differ in a detail not shown here. Identical values can stand only once.

Assays:
MOG-induced EAE = MOG-induced EAE with GA blocking and s.c. daily GA (Example 2.5); assay type: in vivo, C57B1 mice; set-up: key to MMS value / GMS value: EAE clinical grade (Table 2); ≥1 = sick, 6 = dead/sacrificed
Method: The objective of this study was to test the suppressive effect of laquinimod alone and in combination with Glatiramer acetate in the EAE model in C57B1 mice. […] Laquinimod was administered orally at dose levels of 2.5 and 5.0 mg/kg.
EAE was induced in the mice by the injection of the encephalitogenic emulsion (MOG/CFA). Laquinimod was administered orally for 30 consecutive days.
EAE induction EAE was induced by injecting the encephalitogenic mixture (emulsion) consisting of MOG ([…]). A 0.2 ml emulsion was injected subcutaneously into the flanks of the mice. Pertussis toxin was injected intraperitoneally on the day of induction and 48 hours later (total amount will be 0.150+0.150=0.300 μg/mouse in 0.2 ml dosage volume).
Groups 1, 3-8: 45.9 mg MOG was diluted in […] Normal Saline (3.0 mg/ml MOG stock solution). 12.5 mL of 3.0 mg/ml stock solution was diluted in 12.5 mL Normal Saline to yield 1.5 mg MOG/mL. […] The emulsification was made from equal parts of oil and liquid portions (1:1) in two syringes connected to each other with Leur lock, transferred to insulin syringe and 0.2 ml was injected the right flank of each mouse. The dose of the MOG in all the groups (1 to 8) was […].
The test concentrations of laquinimod were prepared in purified water. For high dose (25.0 mg/kg) 2.5 mg/mL stock solution was prepared (group 8). The 2.5 mg/mL stock solution was diluted 1:5 and 1:10 to yield 0.5 and 0.25 mg/mL for dose levels of 5.0 mg/kg for groups 5 and 7 and 2.5 mg/kg respectively for groups #4 and 6. Laquinimod was administered daily from the initiation of the study, to the respective groups by gavage at a volume of 0.2 ml/mouse.
Every day one tube was thawed and brought to RT.
Clinical signs Scoring of EAE clinical signs was started from Day 10 post EAE induction and was continued daily until Day 30. The clinical signs were recorded according to a grading system described in the Table 2 above.
All mice having scores of 1 and above were considered sick. When the first clinical sign appeared all mice were given food soaked in water, which was spread on different places on the bedding of the cages. An animal which continued to have score 5 for three days was killed on humane grounds and given score 6 on the next day. For calculation purposes, the score of animals that were sacrificed or died (6) was carried forward.

MSCH-induced EAE = MSCH-induced EAE in CSJL mice (Example 2.7); assay type: in vivo, CSJL/F1 mice
[1] = LAQ 5.0 mg/kg oral daily 30 d, alone or + GA 250 mg/kg s.c. daily 10 d
[2] = LAQ 0.01 mg/kg/day oral, alone or + GA Blocking 0.5 mg/kg
[3] = LAQ 0.1 mg/kg/day oral, alone or + GA Blocking 0.5 mg/kg

`CCN(C(=O)c1c(O)c2c(Cl)cccc2n(C)c1=O)c1ccccc1` [laquinimod] was tested, and the MMS value (MOG-induced EAE; [1]) was 2.1 ± 1.8, the “Mean Duration” value (MOG-induced EAE; [1]) was 5.7 ± 6.6 days and the “Mean Onset” value (MOG-induced EAE; [1]) was 25.1 ± 6.8 days. For the same compound, the Mortality (MOG-induced EAE; [1]) was 0/15, the “% Inhibition 1 (incidence)” value (MOG-induced EAE; LAQ 25.0 mg/kg oral daily 30 d) was 100.0% and the “GMS % Inhibition 3” value (MOG-induced EAE; LAQ 25.0 mg/kg oral daily 30 d) was 100.0%. The GMS value (MOG-induced EAE; LAQ 25.0 mg/kg oral daily 30 d) was 0.0 ± 0.0, the Incidence (MOG-induced EAE; LAQ 25.0 mg/kg oral daily 30 d) was 0/15 and the “MMS % Inhibition 2” value (MOG-induced EAE; LAQ 25.0 mg/kg oral daily 30 d) was 100.00%. The MMS value (MOG-induced EAE; LAQ 25.0 mg/kg oral daily 30 d) was 0.0 ± 0.0, the “Mean Duration” value (MOG-induced EAE; LAQ 25.0 mg/kg oral daily 30 d) was 31.0 ± 0.0 days and the “Mean Onset” value (MOG-induced EAE; LAQ 25.0 mg/kg oral daily 30 d) was 0.0 ± 0.0 days. The Mortality (MOG-induced EAE; LAQ 25.0 mg/kg oral daily 30 d) was 0/15, the “GMS % Inhibition 3” value (MOG-induced EAE; LAQ 25.0 mg/kg oral daily 30 d, listed as LAQ) was 100.00% and the “GMS % Inhibition 3” value (MOG-induced EAE; LAQ 25.0 mg/kg oral daily 30 d, listed as LQ) was 100%. The “% Inhibition 1 (incidence)” value (MSCH-induced EAE; [2]) was 0.0%, the “GMS % Inhibition 3” value (MSCH-induced EAE; [2]) was 16.7% and the GMS value (MSCH-induced EAE; [2]) was 3.5 ± 0.9. The Incidence (MSCH-induced EAE; [2]) was 10/10, the “MMS % Inhibition 2” value (MSCH-induced EAE; [2]) was 4.0% and the MMS value (MSCH-induced EAE; [2]) was 4.8 ± 0.4. For the same compound, the “Mean Duration” value (MSCH-induced EAE; [2]) was 11.5 ± 0.8 days, the “Mean Onset” value (MSCH-induced EAE; [2]) was 12.5 ± 0.8 days and the “% Inhibition 1 (incidence)” value (MSCH-induced EAE; [3]) was 10.0%. For the same compound, the “GMS % Inhibition 3” value (MSCH-induced EAE; [3]) was 31.0%, the GMS value (MSCH-induced EAE; [3]) was 2.9 ± 1.5 and the Incidence (MSCH-induced EAE; [3]) was 9/10. The “MMS % Inhibition 2” value (MSCH-induced EAE; [3]) was 18.0%, the MMS value (MSCH-induced EAE; [3]) was 4.2 ± 1.7 and the “Mean Duration” value (MSCH-induced EAE; [3]) was 9.8 ± 4.0 days. The “Mean Onset” value (MSCH-induced EAE; [3]) was 14.2 ± 4.0 days, the “% Inhibition 1 (incidence)” value (MSCH-induced EAE; LAQ 0.3 mg/kg/day oral) was 0.0% and the “GMS % Inhibition 3” value (MSCH-induced EAE; LAQ 0.3 mg/kg/day oral) was 28.6%. The GMS value (MSCH-induced EAE; LAQ 0.3 mg/kg/day oral) was 3.0 ± 1.2, the Incidence (MSCH-induced EAE; LAQ 0.3 mg/kg/day oral) was 10/10 and the “MMS % Inhibition 2” value (MSCH-induced EAE; LAQ 0.3 mg/kg/day oral) was 16.0%. The MMS value (MSCH-induced EAE; LAQ 0.3 mg/kg/day oral) was 4.2 ± 1.0, the “Mean Duration” value (MSCH-induced EAE; LAQ 0.3 mg/kg/day oral) was 10.8 ± 2.0 days and the “Mean Onset” value (MSCH-induced EAE; LAQ 0.3 mg/kg/day oral) was 13.2 ± 2.0 days. For the same compound, the Mortality (MSCH-induced EAE; LAQ 0.3 mg/kg/day oral) was 6/10, the “% Inhibition 1 (incidence)” value (MSCH-induced EAE; LAQ 1.0 mg/kg/day oral) was 0.0% and the “GMS % Inhibition 3” value (MSCH-induced EAE; LAQ 1.0 mg/kg/day oral) was 38.1%. For the same compound, the GMS value (MSCH-induced EAE; LAQ 1.0 mg/kg/day oral) was 2.6 ± 1.1, the Incidence (MSCH-induced EAE; LAQ 1.0 mg/kg/day oral) was 10/10 and the “MMS % Inhibition 2” value (MSCH-induced EAE; LAQ 1.0 mg/kg/day oral) was 28.0%. For the same compound, the MMS value (MSCH-induced EAE; LAQ 1.0 mg/kg/day oral) was 3.6 ± 0.0, the “Mean Duration” value (MSCH-induced EAE; LAQ 1.0 mg/kg/day oral) was 10.7 ± 1.9 days and the “Mean Onset” value (MSCH-induced EAE; LAQ 1.0 mg/kg/day oral) was 13.0 ± 2.0 days. The Mortality (MSCH-induced EAE; LAQ 1.0 mg/kg/day oral) was 3/10 and the Mortality (MSCH-induced EAE; mouse, in vivo) was 7/10 and 8/10.
